# pIC50: −log10 of the molar value. Entries after “also recorded” stand apart in the source; their conditions may differ.
# Tests used:
# 231-MGMT-2 = assay: Colony formation assay, MGMT-transfected 231-MGMT-2; assay type: cell-based, human; conditions: for pIC50: Homo sapiens, 48 h, read-out: IC50 (concentration required to decrease colony formation by 50%)
# Experimental: (§1) Depending on the cell line (and plating efficiency), 200-350 cells were seeded into each well of a 6-well plate. […] Thereafter, the drugs were removed, fresh growth medium was added, and the cells were kept in culture undisturbed for 12-16 days, during which time the surviving cells spawned colonies of descendants. Colonies (defined as groups of >50 cells) were visualized by staining for 4 hours with 1% methylene blue (in methanol), and then were counted.
# In the case of O6-BG treatment, cells were pretreated with 10 μM O6-BG for one hour before addition of TMZ or TMZ-POH. After 24 hours, another 10 μM O6-BG was added to the medium. Another 24 hours later, drug-laced medium was removed, and fresh medium without drugs was added. Thereafter, cells remained undisturbed until staining with methylene blue.
# MDA-MB-231 cells were co-transfected in 6-well plates with the use of Lipofectamine 2000 (Invitrogen, Carlsbad, Calif.) according to manufacturer's instructions. 2 μg pSV2MGMT (containing the human MGMT cDNA) was combined with 0.2 μg pSV2neo (containing the neomycin gene for selection of cells in G418). Both plasmids were provided by Bernd Kaina (Mainz, Germany). Individual clones of transfected cells were selected in medium containing 750 μg/mL G418 and propagated in 250 μg/mL G418. G418 was obtained as G418 disulfate salt from Sigma-Aldrich and dissolved in PBS at 75 mg/mL. Selection medium was removed from cells several days before experimental drug treatment.
# To investigate the latter, we stably transfected MGMT-negative MDA-MB-231 cells with MGMT cDNA and isolated individual clones. […] Both clones were treated with increasing concentrations of TMZ-POH and TMZ and analyzed by CFA.
# [1] = tested on: USC-02 glioma cancer stem cells; assay: MTT cytotoxicity assay, USC-02 glioma cancer stem cells; assay type: cell-based
# From the text: Cancer Lett. 2011 Mar. 28; 302(2):100-8.
# MDA-MB-231 cells = assay: Determination of drug stability by colony formation assay; assay type: cell-based, human; conditions: for colony survival: drugs in the medium for 24 hours; for reduction of colony formation: one-hour exposure; for survival: two-hour exposure; for reduction of survival: added straight to cells, 24 hours; for colony-forming ability of receiving cells: supernatant transferred after prior one-hour incubation
# Experimental: FIGS. 26A-26C depicts determination of drug stability, where MDA-MB-231 cells were analyzed in colony formation assays. In FIG. 26A, cells were treated with 15 μM TMZ-POH or 30 μM TMZ for 30 min or 1, 2, 4, and 24 hours. Thereafter, drug-containing medium was removed, fresh medium (without drug) was added, and cells remained undisturbed until colony staining 12 days later. The arrows indicate which cells received which supernatant. After 24 hours of incubation, all drug-containing medium was removed, fresh medium (without drug) was added, and cells remained undisturbed until colony staining 12 days later. […] Left panel (untreated): control cells without drug treatment. Middle panel (0-24 h): Cells received 15 μM TMZ-POH or 30 μM TMZ for 24 hours. Right panel (1-25 h): TMZ-POH and TMZ were incubated in neutral buffer at 37° C. for 1 hour before addition to cells to a final concentration of 15 μM TMZ-POH and 30 μM TMZ for 24 hours.
# TMZ is a prodrug, and it is well known that its activation takes place spontaneously in aqueous solution at 37° C. (i.e., no cellular functions are required for this conversion). As well, the half-lives of both prodrug and active product are fairly short, where all cytotoxic triggers are set within the first few hours of treatment. […] First, we exposed cells to variably short periods of drug treatment, washed off the drug, and then continued to keep cells in medium without drug to determine survival and colony-forming ability. For most of these experiments, we used 15 μM TMZ-POH and 30 μM TMZ, because these concentrations are approximately equipotent in the >90% cytotoxicity range (when measured by CFAs and a drug exposure time of 24 hours).
# Thus, TMZ acted more quickly than TMZ-POH; it required only 4 hours to exert maximum toxicity, whereas TMZ-POH had not yet reached its maximum impact at this time point.
# We next modified this experiment as follows. After cells had been exposed to drug treatment for the specific times shown in FIG. 26A, we removed the medium containing the drug from the cells, and transferred this supernatant to fresh cells, which were then exposed for 24 hours. […] In contrast, when supernatant was transferred after prior one-hour incubation, colony-forming ability of receiving cells was 48% in cells receiving TMZ-containing supernatant, and 22% in TMZ-POH-containing supernatant.
# To exclude the involvement of cellular enzymes in the turnover of TMZ-POH, we incubated TMZ-POH (and TMZ) in phosphate-buffered saline at 37° C. for one hour (in the absence of cells). After this pre-incubation, TMZ-POH and TMZ were added to cells for 24 hours, and survival was determined by CFA. As a control, both drugs were also added to cells without prior incubation in aqueous solution. A representative CFA is shown in FIG. 26C, where the middle panel confirms that both drugs were used at approximately equipotent concentrations; i.e., when added straight to cells, they reduced survival by ˜95%. However, pre-incubation in aqueous solution for only one hour preempted the cytotoxic potency of TMZ by about 50%, but that of TMZ-POH much less (80% remaining; see right panel).
# HCC-1937 = assay: Colony formation assay, HCC-1937; assay type: cell-based, human; conditions: for pIC50: Homo sapiens, HCC1937, 48 h, read-out: IC50 (concentration required to decrease colony formation by 50%)
# Experimental: as §1
# The cytotoxic potency of TMZ-POH, was analyzed by colony formation assay (CFA) in a variety of human breast cancer cell lines and compared to the cytotoxicity of TMZ. We used estrogen receptor positive cells MCF7 and T47D, the triple-negative lines MDA-MB-231, MDA-MB-468, and HCC-1937, and a brain-seeking variant of the 231 cell line, MDA-MB-231-br.
SMILES,pIC50 (231-MGMT-2),"cytotoxicity (MTT assay) ([1]; TMZ 0-400 uM, POH 0-2 mM, in words)",colony survival (MDA-MB-231 cells; 15 μM TMZ-POH or 30 μM TMZ),reduction of colony formation (MDA-MB-231 cells; 15 μM TMZ-POH or 30 μM TMZ) [%],survival (MDA-MB-231 cells; 15 μM TMZ-POH or 30 μM TMZ) [%],reduction of survival (MDA-MB-231 cells; 15 μM TMZ-POH or 30 μM TMZ) [%],colony-forming ability of receiving cells (MDA-MB-231 cells) [%],pIC50 (HCC-1937),"Differential (−fold) (231-MGMT-2; fold increase in potency of TMZ-POH compared to TMZ, 231-MGMT-2)",pIC50 ([1]; read-out: cytotoxicity with 1050),time required to exert maximum toxicity (MDA-MB-231 cells; 15 μM TMZ-POH or 30 μM TMZ) [h],stability / retention of cytotoxic potency (MDA-MB-231 cells; in words),"cytotoxic potency remaining after pre-incubation (MDA-MB-231 cells; phosphate-buffered saline at 37° C. for one hour, absence of cells) [%]","cytotoxic activity of supernatant transferred after prior 24-hours of incubation (MDA-MB-231 cells; receiving cells exposed 24 hours, in words)","Differential (−fold) (HCC-1937; fold increase in potency of TMZ-POH compared to TMZ, HCC-1937)","colony formation (CFA) (HCC-1937; low micromolar concentrations, 48 hours, in words)"
"Cn1nnc2c(C(N)=O)ncn2c1=O [TMZ, temozolomide, reference compound]",3.67,did not induce significant cytotoxicity,~8%,> 50,23,~95,48,3.73,–,–,–,–,–,–,–,–
C=C(C)[C@@H]1CC=C(COC(=O)NC(=O)c2ncn3c(=O)n(C)nnc23)CC1 [TMZ-POH],4.47,–,about 3%,20,51,~95,22,4.51,6.2 −fold,4.22,> 4,retained its cytotoxic potency substantially longer than TMZ; also recorded: more stable than TMZ,80,no cytotoxic activity remained,6.0 −fold,prevented colony formation

# From patent US9913838B2, “Methods of treating cancer using compositions comprising perillyl alcohol derivative” (NEONC TECHNOLOGIES INC., priority 2010, dated 2018)
